Measurements reported in patent US20050234041A1, “Substituted 1-benzazepines and derivatives thereof” (priority 2001, published 2005).
≈ marks a conversion by molar mass, not a printed value. Like-named read-outs stand apart in the source and are kept apart here.

How the values were obtained:
Campylobacter jejuni = experiment: MIC, broth dilution method, Campylobacter jejuni; assay type: cell-based; details: for MIC: Campylobacter jejuni
Source text: (§1) Antibacterial activity can be determined by several standard methods well known by those skilled in the art, including disc diffusions methods, broth dilution minimal inhibitory concentration (MIC) methods, etc., including the detailed method outlined below and as defined by the National Committee of Clinical Laboratory Standards in the United States.
(§2) MIC, Broth Dilution Method
(§3) Cultures of bacteria are initially brought up from the freezer stocks onto chocolate agar plates by streaking a loop-full, then incubated for 18 hours at 35-37° C. in a 5% CO2 incubator.
(§4) Five to 10 colonies are picked from the chocolate agar plate for subculture to Brain-Heart Infusion (BHI) broth or Mueller Hinton broth or BHI containing 4% serum and incubated as described.
(§5) Evaluate the optical density of the organisms in the wells of a 96 well microtiter plate with and without the test compound. The optical density of the organisms in the presence of an active compound will be less than the optical density of the same organism untreated. The activity of the compounds is described as either negative or the lowest concentration inhibiting growth. The results are depicted in Table III, where +/− represents the least activity and ++++ represents the greatest activity. In Table IV, the results are depicted where MIC represents the lowest concentration of antibiotic that inhibits bacterial growth.

Helicobacter pylori = experiment: MIC, broth dilution method, Helicobacter pylori; assay type: cell-based; details: for MIC: Helicobacter pylori
Source text: as §1, §2, §3, §4, §5

bacteria = experiment: Antibacterial activity, broth dilution (Table III); assay type: cell-based; details: graded activity, organism not given
Source text: as §1, §2, §3, §4, §5

[1] = Table V, read-out: MIC (μg/mL) C. jejuni
[2] = Table V, read-out: MIC (μg/mL) H. pylori
[3] = Table IV, MIC, lowest concentration that inhibits bacterial growth, read-out: Antibacterial Activity (micrograms/ml) Campylobacter jejuni
[4] = Table IV, MIC, lowest concentration that inhibits bacterial growth, read-out: Antibacterial Activity (micrograms/ml) Helicobacter pylori
[5] = Table IV, MIC, lowest concentration that inhibits bacterial growth

| Compound | MIC (Campylobacter jejuni; [1]) [µg/mL] | melting point | MIC (Helicobacter pylori; [2]) [µg/mL] | MIC (Campylobacter jejuni; [3]) [µg/mL] | MIC (Helicobacter pylori; [4]) [µg/mL] | other results |
| --- | --- | --- | --- | --- | --- | --- |
| CCN1C(=O)C(C(=O)OC(C)(C)C)CCc2ccc(O)cc21 (racemic) [Example 178, 3(R,S)-tert-Butoxycarbonyl-1-ethyl-8-hydroxy-2,3,4,5-tetrahydro-1H-1-benzazepine-2-one] | > 200 | 154 to 156 °C | 16 (≈ 52.4 µM) |  |  |  |
| CCN1C(=O)C(C(=O)OC(C)(C)C)CCc2ccc(OC)cc21 (racemic) [Example 12, 3(R,S)-tert-Butoxycarbonyl-1-ethyl-8-methoxy-2,3,4,5-tetrahydro-1H-1-benzazepine-2-one] |  | 132 to 133 °C |  | > 200 | 50 (≈ 157 µM) |  |
| CCN1C(=O)CCCc2cc(N3CCN(C)CC3)c(OC)cc21 [Example 10] |  |  |  |  |  | Antibacterial Activity (micrograms/ml) Campylobacter jejuni (Campylobacter jejuni; [5]): >200 micrograms/ml; Antibacterial Activity (micrograms/ml) Helicobacter pylori (Helicobacter pylori; [5]): >200 micrograms/ml; Antibacterial Activity (bacteria): +/− |
| CCOC(=O)C1CCc2ccc(OC)cc2NC1=O (racemic) [Example 3, 3(R,S)-Ethoxycarbonyl-8-methoxy-2,3,4,5-tetrahydro-1H-1-benzazepine-2-one] |  | 89 to 91 °C |  | 100 (≈ 380 µM) | 50 to 100 (≈ 190 to 380 µM) |  |
| COc1cc2c(cc1Br)CCC(C(=O)OC(C)(C)C)C(=O)N2 (racemic) [Example 32, 7-Bromo-3(R,S)-tert-butoxycarbonyl-8-methoxy-2,3,4,5-tetrahydro-1H-1-benzazepine-2-one] |  | 207 to 208 °C |  | > 200 | 0.78 (≈ 2.11 µM) | Antibacterial Activity (bacteria): ++++ |
| COc1cc2c(cc1Br)CCCC(=O)N2 [Example 24, 7-Bromo-8-methoxy-2,3,4,5-tetrahydro-1H-1-benzazepine-2-one] |  | 180 to 182 °C |  | > 200 | 100 (≈ 370 µM) |  |
| COc1ccc2c(c1)N(C(=O)OC(C)(C)C)C(=O)C(C(=O)OC(C)(C)C)CC2 (racemic) [Example 23, 1-tert-Butoxycarbonyl-3(R,S)-tert-butoxycarbonyl-8-methoxy-2,3,4,5-tetrahydro-1H -benzazepine-2-one] |  | 91 to 92 °C |  | 200 (≈ 511 µM) | 50 (≈ 128 µM) |  |
| COc1cc2c(cc1Br)CCC(C(=O)OC(C)(C)C)C(=O)N2Cc1cccc(F)c1 (racemic) [Example 30, 7-Bromo-3(R,S)-tert-butoxycarbonyl-1-(3-fluorobenzyl)-8-methoxy-2,3,4,5-tetrahydro-1H-1-benzazepine-2-one] |  | 146 to 148 °C |  | > 200 | 1.56 (≈ 3.26 µM) | Antibacterial Activity (bacteria): ++++ |
| COc1cc2c(cc1[N+](=O)[O-])CCC(C(=O)OC(C)(C)C)C(=O)N2C(=O)OC(C)(C)C (racemic) [Example 195, 1,3(R,S)-Di(tert-butoxycarbonyl)-8-methoxy-7-nitro-2,3,4,5-tetrahydro-1H-1-benzazepine-2-one] | 60 (≈ 137 µM) | 142 to 144 °C (dec.) | 4 (≈ 9.16 µM) |  |  |  |
| CCN1C(=O)C(C(=O)OC(C)(C)C)CCc2cc(N3CCNCC3)c(OC)cc21 (racemic) [Example 18, 3(R,S)-tert-Butoxycarbonyl-1-ethyl-8-methoxy-7-(piperazin-1-yl)-2,3,4,5-tetrahydro-1H-1-benzazepine-2-one] |  | 165 °C (dec.) |  | > 200 | 50 (≈ 124 µM) |  |
| CCN1C(=O)CCCc2cc(N3CCNCC3)c(OC)cc21.Cl [Example 22, 1-ethyl-8-methoxy-7-(piperazin-1-yl)-2,3,4,5-tetrahydro-1H-1-benzazepine-2-one hydrochloride] |  |  |  | > 200 | > 200 | Antibacterial Activity (bacteria): − |
| CCN1C(=O)C(C(=O)O)CCc2ccc(OC)cc21 (racemic) [Example 5, 3(R,S)-Carboxyl-1-ethyl-8-methoxy-2,3,4,5-tetrahydro-1H-1-benzazepine-2-one] |  | 120 to 121 °C |  | > 200 | 100 (≈ 380 µM) |  |
| O=C1CCCc2cc([N+](=O)[O-])c(O)cc2N1 [Example 175, 8-Hydroxy-7-nitro-2,3,4,5-tetrahydro-1 H-1-benzazepine-2-one] | 30 (≈ 135 µM) | 239 to 240 °C | 1 (≈ 4.5 µM) | 30 (≈ 135 µM) | 1 (≈ 4.5 µM) |  |
| CCN1C(=O)C(C(=O)NC(C)(C)C)CCc2cc(Br)c(OC)cc21 (racemic) [Example 29, 7-bromo-3(R,S)-N-(tert-butyl)aminocarbonyl-1-ethyl-8-methoxy-2,3,4,5-tetrahydro-1H-1-benzazepine-2-one] |  |  |  | > 200 | > 200 | Antibacterial Activity (bacteria): − |
| COc1cc2c(cc1N1CCN(C(=O)OCc3ccccc3)CC1)CCC(C(=O)OC(C)(C)C)C(=O)N2Cc1cccc(F)c1 (racemic) [Example 31, 7-[(4-Benzyloxycarbonyl)piperazin-1-yl]-3(R,S)-tert-butoxycarbonyl-1-(3-fluorobenzyl)-8-methoxy-2,3,4,5-tetrahydro-1 H-1-benzazepine-2-one] |  |  |  |  |  | Antibacterial Activity (micrograms/ml) Campylobacter jejuni (Campylobacter jejuni; [5]): >200 micrograms/ml; Antibacterial Activity (micrograms/ml) Helicobacter pylori (Helicobacter pylori; [5]): 0.78 micrograms/ml; Antibacterial Activity (bacteria): ++++ |
| COc1ccc2c(c1)NC(=O)C(C(=O)OC(C)(C)C)CC2 (racemic) [Example 11, 3(R,S)-tert-Butoxycarbonyl-8-methoxy-2,3,4,5-tetrahydro-1 H-1-benzazepine-2-one] |  | 145 to 147 °C |  | 100 to 200 (≈ 343 to 686 µM) | 50 (≈ 172 µM) |  |
| CCN1C(=O)CCCc2cc(Br)c(OC)cc21 [Example 9, 7-Bromo-1-ethyl-8-methoxy-2,3,4,5-tetrahydro-1H-1-benzazepine-2-one] |  | 133 to 135 °C |  | > 200 | 100 (≈ 335 µM) |  |
| COc1cc2c(cc1N)CCC(C(=O)OC(C)(C)C)C(=O)N2 (racemic) [Example 199, 7-Amino-3(R,S)-tert-butoxycarbonyl-8-methoxy-2,3,4,5-tetrahydro-1H-1-benzazepine-2-one] | > 250 |  | 125 (≈ 408 µM) |  |  |  |
| COc1ccc2c(c1)NC(=O)CCC2 [Example 2, 8-Methoxy-2,3,4,5-tetrahydro-1H-1-benzazepine-2-one] |  | 105 to 106 °C |  | 50 (≈ 261 µM) | > 200 |  |
| COc1ccc2c(c1)N(CC(=O)OC(C)(C)C)C(=O)C(C(=O)OC(C)(C)C)CC2 (racemic) [Example 200, 1-(tert-Butoxycarbonyl)methyl-3(R,S)-tert-butoxycarbonyl-8-methoxy-2,3,4,5-tetrahydro-1H-1-benzazepine-2-one] | > 250 |  | 15 (≈ 37 µM) |  |  |  |
| CCOc1ccc2c(c1)N(CC)C(=O)C(C(=O)OC(C)(C)C)CC2 (racemic) [Example 180, 8-Ethoxy-3(R,S)-tert-butoxycarbonyl-1-ethyl-2,3,4,5-tetrahydro-1H-1-benzazepine-2-one] | > 200 |  | 32 (≈ 96 µM) |  |  |  |
| O=C1CCCc2ccc([N+](=O)[O-])cc2N1 [Example 181, 8-Nitro-2,3,4,5-tetrahydro-1H-1-benzazepine-2-one] | 125 (≈ 606 µM) |  | 250 (≈ 1210 µM) |  |  |  |
| COc1ccc2c(c1)NC(=O)C(C(=O)NOCc1ccccc1)CC2 (stereo not drawn) [Example 193, 3-Benzyloxyaminocarbonyl-8-methoxy-2,3,4,5-tetrahydro-1H-1-benzazepine-2-one] | > 250 | 162 to 164 °C | 4 (≈ 11.8 µM) |  |  |  |
| CCN1C(=O)C(C(=O)OC)CCc2cc(Br)c(OC)cc21 (racemic) [Example 28, 7-bromo-1-ethyl-3(R,S)-methoxycarbonyl-8-methoxy-2,3,4,5-tetrahydro-1H-1-benzazepine-2-one] |  |  |  | > 200 | 25 (≈ 70.2 µM) |  |
| CCN1C(=O)C(C(=O)OC(C)(C)C)CCc2cc(Br)c(OC)cc21 (racemic) [Example 13, 7-Bromo-3(R,S)-tert-butoxycarbonyl-1-ethyl-8-methoxy-2,3,4,5-tetrahydro-1H-1-benzazepine-2-one] |  | 131 to 132 °C |  | > 200 | 6.25 to 12.5 (≈ 15.7 to 31.4 µM) |  |
| CCOC(=O)NC(=S)Nc1cc2c(cc1OC)NC(=O)C(C(=O)OC(C)(C)C)CC2 (racemic) [Example 176, 3(R,S)-tert-Butoxycarbonyl-7-[(ethoxycarbonylamino)thiocarbonyl)]amino-8-methoxy-2,3,4,5-tetrahydro-1H-1-benzazepine-2-one] |  |  |  |  |  | Antibacterial Activity (micrograms/ml) Campylobacter jejuni (Campylobacter jejuni; [5]): >250 micrograms/ml; MIC (μg/mL) C. jejuni (Campylobacter jejuni; Table V): >250, μg/mL; Antibacterial Activity (micrograms/ml) Helicobacter pylori (Helicobacter pylori; [5]): 4 micrograms/ml; MIC (μg/mL) H. pylori (Helicobacter pylori; Table V): 4 µg/mL (≈ 9.14 µM); Antibacterial Activity (bacteria): ++++ |
| CC(C)(C)OC(=O)C1CCc2cc([N+](=O)[O-])c(O)cc2NC1=O (racemic) [Example 220, 3(R,S)-tert-Butoxycarbonyl-8-hydroxyl-7-nitro-2,3,4,5-tetrahydro-1H-1-benzazepine-2-one] | 250 (≈ 776 µM) | 189 to 191 °C (dec.) | 8 (≈ 24.8 µM) |  |  |  |
| O=C1CCCc2cc(O)ccc2N1 [Example 189, 7-Hydroxy-2,3,4,5-tetrahydro-H-1-benzazepine-2-one] | > 250 |  | 125 (≈ 705 µM) |  |  |  |
